Measurements published in ChEMBL document CHEMBL1201862, “PubChem BioAssay data set” (2004).
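A five-concentration, 48-hour dose response in 96-well plates underlies each endpoint, interpolated linearly between surrounding concentrations. Here, GI50 denotes the concentration required for 50% inhibition of growth.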 Calls of active or inactive are those of the source. No stated cut-off is given here; in the data, active = GI50 up to about 1.1 µM and inactive = higher.

How the values were obtained:
Test in all cases: growth of human tumour cells (NCI), 48 h
EKVX = test system: EKVX
KM12 = test system: KM12
OVCAR-5 = test system: OVCAR-5
SNB-19 = test system: SNB-19
LOX IMVI = test system: LOX IMVI
UACC-257 = test system: UACC-257
MOLT-4 = test system: MOLT-4
ACHN = test system: ACHN
IGROV-1 = test system: IGROV-1
NCI-H226 = test system: NCI-H226
NCI-H23 = test system: NCI-H23
Hs-578T = test system: Hs-578T
SF-539 = test system: SF-539
SK-MEL-2 = test system: SK-MEL-2
HCC 2998 = test system: HCC 2998
SK-OV-3 = test system: SK-OV-3
HCT-15 = test system: HCT-15
MCF7 = test system: MCF7
HOP-62 = test system: HOP-62
SR = test system: SR

| SMILES | GI50 (EKVX) | GI50 (KM12) | GI50 (OVCAR-5) | GI50 (SNB-19) | GI50 (LOX IMVI) | GI50 (UACC-257) | GI50 (MOLT-4) | GI50 (ACHN) | GI50 (IGROV-1) | GI50 (NCI-H226) | GI50 (NCI-H23) | GI50 (Hs-578T) | GI50 (SF-539) | GI50 (SK-MEL-2) | GI50 (HCC 2998) | GI50 (SK-OV-3) | GI50 (HCT-15) [µM] | GI50 (MCF7) | GI50 (HOP-62) | GI50 (SR) |
| --- | --- | --- | --- | --- | --- | --- | --- | --- | --- | --- | --- | --- | --- | --- | --- | --- | --- | --- | --- | --- |
| C=CCOc1cc(NC(=S)c2ccoc2C)ccc1OC | > 100 µM (inactive) | > 100 µM (inactive) | > 100 µM (inactive) | > 100 µM (inactive) | > 100 µM (inactive) | > 100 µM (inactive) | > 100 µM (inactive) | > 100 µM (inactive) | > 100 µM (inactive) | > 100 µM (inactive) | > 100 µM (inactive) | > 100 µM (inactive) | > 100 µM (inactive) | > 100 µM (inactive) | > 100 µM (inactive) | > 100 µM (inactive) | > 100 | > 100 µM (inactive) |  |  |
| O=[N+]([O-])c1cccnc1NCC1(CO)CCCC1 | 27.8 µM (inactive) |  | 31.6 µM (inactive) | 56.4 µM (inactive) | 16.7 µM (inactive) | 20.6 µM (inactive) | 15.6 µM (inactive) | 27 µM (inactive) | 18.3 µM (inactive) | 25.6 µM (inactive) | 32.6 µM (inactive) | 24.5 µM (inactive) | 21.6 µM (inactive) |  | 18.8 µM (inactive) |  | 18.5 | 42.7 µM (inactive) | 33 µM (inactive) | 25.4 µM (inactive) |
| COc1ccc(N2C(=O)CC(c3c[nH]c4ncccc34)C2=O)cc1 (stereo not drawn) | 37.1 µM (inactive) | > 100 µM (inactive) | 63.2 µM (inactive) | > 100 µM (inactive) | > 100 µM (inactive) | 19.3 µM (inactive) | > 20.7 µM (inactive) | 21.2 µM (inactive) | 21.3 µM (inactive) | > 100 µM (inactive) | 24.2 µM (inactive) | > 100 µM (inactive) | > 47.2 µM (inactive) | 36.1 µM (inactive) | > 100 µM (inactive) | > 100 µM (inactive) | 24.8 | 27.5 µM (inactive) | > 100 µM (inactive) |  |
| CCCCCC(O)[C@H]1C(=O)C[C@@H](O[Si](C)(C)C(C)(C)C)[C@@H]1/C=C/CCOCc1ccccc1 (stereo partly drawn) | 17.4 µM (inactive) | 5.41 µM (inactive) | 17.9 µM (inactive) | 15 µM (inactive) | 10.9 µM (inactive) | 13.3 µM (inactive) | 4.46 µM (inactive) | 13.5 µM (inactive) | 12.8 µM (inactive) | 14 µM (inactive) | 16.2 µM (inactive) | 7.19 µM (inactive) | 4.23 µM (inactive) | 15.5 µM (inactive) | 14.9 µM (inactive) | 16.8 µM (inactive) | 10.6 | 9.02 µM (inactive) | 17.3 µM (inactive) |  |
| CC(=O)Nc1ccc(NC(=O)CC(=O)Nc2ccc(NC(C)=O)cc2)cc1 | > 100 µM (inactive) | > 100 µM (inactive) |  | > 100 µM (inactive) | > 100 µM (inactive) | > 100 µM (inactive) | > 100 µM (inactive) | > 100 µM (inactive) | > 100 µM (inactive) | > 100 µM (inactive) | > 100 µM (inactive) | > 100 µM (inactive) | > 100 µM (inactive) |  | 19.4 µM (inactive) | 20.2 µM (inactive) | 25.8 | > 100 µM (inactive) |  | > 100 µM (inactive) |
| CCOC(=O)C(O)(C(=O)OCC)c1cc(C(C)(C)C)c(O)c(C(C)(C)C)c1 | 48.4 µM (inactive) | 34.8 µM (inactive) | 41.2 µM (inactive) | 26 µM (inactive) | 37.2 µM (inactive) | 34.4 µM (inactive) | 25.8 µM (inactive) | 41.3 µM (inactive) | 45 µM (inactive) | 16.4 µM (inactive) | 43.6 µM (inactive) | 32.7 µM (inactive) | 28.4 µM (inactive) | 27.7 µM (inactive) |  | 70.3 µM (inactive) | 42 | 40.4 µM (inactive) | > 100 µM (inactive) | 33.6 µM (inactive) |
| CN(C)CCCNc1c2c(=O)n(C)c(=O)nc-2n(C)c2ccccc12 | 6.43 µM (inactive) | 3.58 µM (inactive) | 6.1 µM (inactive) | 6.56 µM (inactive) | 3.87 µM (inactive) | 4.86 µM (inactive) | 3.01 µM (inactive) | 5.45 µM (inactive) | 15.6 µM (inactive) | 5.07 µM (inactive) | 7.41 µM (inactive) | 10.1 µM (inactive) | 6.73 µM (inactive) | 2.52 µM (inactive) |  | 6.24 µM (inactive) | 20.1 | 3.82 µM (inactive) | 3.75 µM (inactive) | 3 µM (inactive) |
